Test results from patent publication US6479435B1, “Diaryl ethers and processes for their preparation and herbicidal and desiccant compositions containing them” (ISK Americas Incorporated, priority 1997, dated 2002).

Legend:
Type in all cases: in vivo
[1] = tested on: barnyardgrass (Echinochloa crusgalli, ECHCG); assay: Post-emerge greenhouse herbicide test, phytotoxicity rating; conditions: Echinochloa crus-galli, post-emergence, 336 h, 14 days after application, scale 0-100; for pest or weed control at 63 g/ha: rate 63 g ai/ha; for pest or weed control at 500 g/ha: rate 500 g ai/ha
Procedure, shortened: (§1)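 Compounds in acetone with 0.25% v/v non-ionic surfactant were track-sprayed at 187 l/ha over plants at the 2-3 leaf stage, at 63 to 1000 g ai/ha. Pots were bottom-watered. Injury was scored visually 14 days later on a 0-100 scale, where 0 is no damage and 100 is complete plant death.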

[2] = tested on: redroot pigweed (Amaranthus retroflexus, AMARE); assay: as above; conditions: Amaranthus retroflexus, post-emergence, 336 h, 14 days after application, scale 0-100; for pest or weed control at 63 g/ha: rate 63 g ai/ha; for pest or weed control at 500 g/ha: rate 500 g ai/ha
Procedure, shortened: as §1

[3] = tested on: lambsquarters (Chenopodium album, CHEAL); assay: as above; conditions: Chenopodium album, post-emergence, 336 h, 14 days after application, scale 0-100; for pest or weed control at 63 g/ha: rate 63 g ai/ha; for pest or weed control at 500 g/ha: rate 500 g ai/ha
Procedure, shortened: as §1

[4] = tested on: large crabgrass (Digitaria sanguinalis, DIGSA); assay: as above; conditions: Digitaria sanguinalis, post-emergence, 336 h, 14 days after application, scale 0-100; for pest or weed control at 63 g/ha: rate 63 g ai/ha; for pest or weed control at 500 g/ha: rate 500 g ai/ha
Procedure, shortened: as §1

[5] = tested on: velvetleaf (Abutilon theophrasti, ABUTH); assay: as above; conditions: Abutilon theophrasti, post-emergence, 336 h, 14 days after application, scale 0-100; for pest or weed control at 63 g/ha: rate 63 g ai/ha; for pest or weed control at 500 g/ha: rate 500 g ai/ha
Procedure, shortened: as §1

[6] = tested on: sicklepod (Cassia obtusifolia, CASOB); assay: as above; conditions: Senna obtusifolia, post-emergence, 336 h, 14 days after application, scale 0-100; for pest or weed control at 63 g/ha: rate 63 g ai/ha; for pest or weed control at 500 g/ha: rate 500 g ai/ha
Procedure, shortened: as §1

[7] = tested on: green foxtail (Setaria viridis, SETVI); assay: as above; conditions: Setaria viridis, post-emergence, 336 h, 14 days after application, scale 0-100; for pest or weed control at 63 g/ha: rate 63 g ai/ha; for pest or weed control at 500 g/ha: rate 500 g ai/ha
Procedure, shortened: as §1

[8] = tested on: Johnsongrass (Sorghum halepense, SORHA); assay: as above; conditions: Sorghum halepense, post-emergence, 336 h, 14 days after application, scale 0-100; for pest or weed control at 63 g/ha: rate 63 g ai/ha; for pest or weed control at 500 g/ha: rate 500 g ai/ha
Procedure, shortened: as §1

[9] = tested on: ivyleaf morningglory (Ipomoea hederacea, IPOHE); assay: as above; conditions: Ipomoea, post-emergence, 336 h, 14 days after application, scale 0-100; for pest or weed control at 63 g/ha: rate 63 g ai/ha; for pest or weed control at 500 g/ha: rate 500 g ai/ha
Procedure, shortened: as §1

[10] = tested on: redroot pigweed (Amaranthus retroflexus, AMARE); assay: Pre-emerge greenhouse herbicide test, phytotoxicity rating; conditions: Amaranthus retroflexus, pre-emergence, 336 h, 14 days after application, rating scale 0-100; for pest or weed control at 125 g/ha: Rate 125 g al/ha; for pest or weed control at 500 g/ha: Rate 500 g al/ha
Procedure, shortened: (§2)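 Seeds sown in sandy loam mix one day before track-sprayer application of compounds in acetone at 125–1000 g ai/ha (187 l/ha), then surface-watered to incorporate and bottom-watered. Visual rating 14 days after application on a 0–100 scale (0 = no damage, 100 = all plants dead).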

[11] = tested on: lambsquarters (Chenopodium album, CHEAL); assay: as above; conditions: Chenopodium album, pre-emergence, 336 h, 14 days after application, rating scale 0-100; for pest or weed control at 125 g/ha: Rate 125 g al/ha; for pest or weed control at 500 g/ha: Rate 500 g al/ha
Procedure, shortened: as §2

[12] = tested on: velvetleaf (Abutilon theophrasti, ABUTH); assay: as above; conditions: Abutilon theophrasti, pre-emergence, 336 h, 14 days after application, rating scale 0-100; for pest or weed control at 125 g/ha: Rate 125 g al/ha; for pest or weed control at 500 g/ha: Rate 500 g al/ha
Procedure, shortened: as §2

[13] = tested on: green foxtail (Setaria viridis, SETVI); assay: as above; conditions: Setaria viridis, pre-emergence, 336 h, 14 days after application, rating scale 0-100; for pest or weed control at 125 g/ha: Rate 125 g al/ha; for pest or weed control at 500 g/ha: Rate 500 g al/ha
Procedure, shortened: as §2

[14] = tested on: Johnsongrass (Sorghum halepense, SORHA); assay: as above; conditions: Sorghum halepense, pre-emergence, 336 h, 14 days after application, rating scale 0-100; for pest or weed control at 125 g/ha: Rate 125 g al/ha; for pest or weed control at 500 g/ha: Rate 500 g al/ha
Procedure, shortened: as §2

[15] = tested on: ivyleaf morningglory (Ipomoea hederacea, IPOHE); assay: as above; conditions: Ipomoea, pre-emergence, 336 h, 14 days after application, rating scale 0-100; for pest or weed control at 125 g/ha: Rate 125 g al/ha; for pest or weed control at 500 g/ha: Rate 500 g al/ha
Procedure, shortened: as §2

SMILES	pest or weed control at 500 g/ha [1]	pest or weed control at 500 g/ha [2]	pest or weed control at 500 g/ha [3]	pest or weed control at 500 g/ha [4]	pest or weed control at 500 g/ha [5]	pest or weed control at 500 g/ha [6]	pest or weed control at 500 g/ha [7]	pest or weed control at 500 g/ha [8]	pest or weed control at 500 g/ha [9]	pest or weed control at 125 g/ha [10]	pest or weed control at 500 g/ha [10]	pest or weed control at 125 g/ha [11]	pest or weed control at 500 g/ha [11]	pest or weed control at 125 g/ha [12]	pest or weed control at 500 g/ha [12]	pest or weed control at 125 g/ha [13]	pest or weed control at 500 g/ha [13]	pest or weed control at 125 g/ha [14]	pest or weed control at 500 g/ha [14]	pest or weed control at 125 g/ha [15]	other results
Nn1c(C(F)(F)F)cc(=O)n(-c2cc(Oc3ccc([N+](=O)[O-])cn3)c(Cl)cc2F)c1=O [Compound 9-11, 1-Amino-3-[4-chloro-2-fluoro-5-(5-nitro-2-pyridyloxy)phenyl]-6-trifluoromethyl-1,2,3,4-tetrahydropyrimidine-2,4-dione]	50%	100%	100%	80%	100%	80%	40%	80%	100%	100%	100%	100%	100%	100%	100%	70%	100%	20%	90%	10%	pest or weed control at 63 g/ha [1]: 0%; pest or weed control at 63 g/ha [2]: 100%; pest or weed control at 63 g/ha [3]: 80%; pest or weed control at 63 g/ha [4]: 40%; pest or weed control at 63 g/ha [5]: 100%; pest or weed control at 63 g/ha [6]: 30%; pest or weed control at 63 g/ha [7]: 20%; pest or weed control at 63 g/ha [8]: 20%; pest or weed control at 63 g/ha [9]: 100%; pest or weed control at 500 g/ha [15]: 100%
Cc1nsc(Oc2cc(-n3c(=O)cc(C(F)(F)F)n(N)c3=O)c(F)cc2Cl)c1[N+](=O)[O-] [Compound 9-14, 1-Amino-3-[4-Chloro-2-fluoro-5-(3-methyl-4-nitroisothiazol-5-yloxy)phenyl]-6-trifluoromethyl-1,2,3,4-tetrahydropyrimidine-2,4-dione]	100%	100%	100%	100%	100%	100%	100%	100%	100%	100%	100%	100%	100%	100%	100%	100%	100%	95%	100%	100%	pest or weed control at 63 g/ha [1]: 10%; pest or weed control at 63 g/ha [2]: 100%; pest or weed control at 63 g/ha [3]: 80%; pest or weed control at 63 g/ha [4]: 30%; pest or weed control at 63 g/ha [5]: 100%; pest or weed control at 63 g/ha [6]: 60%; pest or weed control at 63 g/ha [7]: 80%; pest or weed control at 63 g/ha [8]: 40%; pest or weed control at 63 g/ha [9]: 95%; pest or weed control at 500 g/ha [15]: 100%
Nn1c(C(F)(F)F)cc(=O)n(-c2cc(Oc3ccccn3)c(Cl)cc2F)c1=O [Compound 9-15, 1-amino-3-[4-chloro-2-fluoro-5-(2pyridyloxy)phenyl]-6-trifluoromethyl-1,2,3,4-tetrahydropyrimidine-2,4-dione]	99%	100%	100%	100%	100%	100%	100%	100%	100%	100%	100%	100%	100%	100%	100%	100%	100%	100%	100%	100%	pest or weed control at 125 g/ha ([1]; rate 125 g ai/ha): 90%; pest or weed control at 125 g/ha ([2]; rate 125 g ai/ha): 100%; pest or weed control at 125 g/ha ([3]; rate 125 g ai/ha): 100%; pest or weed control at 125 g/ha ([4]; rate 125 g ai/ha): 90%; pest or weed control at 125 g/ha ([5]; rate 125 g ai/ha): 100%; pest or weed control at 125 g/ha ([6]; rate 125 g ai/ha): 100%; pest or weed control at 125 g/ha ([7]; rate 125 g ai/ha): 95%; pest or weed control at 125 g/ha ([8]; rate 125 g ai/ha): 95%; pest or weed control at 125 g/ha ([9]; rate 125 g ai/ha): 100%; pest or weed control at 500 g/ha [15]: 100%
